According to patent publication US20080004320A1, “Remedy for Glomerular Disease” (Kowa Co., Ltd., priority 2004, published 2008):
Counter-ions that a name gives are not always drawn.

Test system: ⅚ nephrectomized rats
Test: Effect on ⅚ nephrectomized rat (progressive renal failure model)
Assay type: in vivo
Settings: for death due to renal failure, compared with control group (FIG. 1): until week 15 after initiation of drug administration; for glomerulosclerosis score compared with control group (in words) / Glomerulosclerosis (score): week 15 after initiation of drug administration; for Glomerulosclerosis (score): average score of 50 glomeruli per renal tissue piece, male SD rats
Excerpt: Fifty-one male SD rats (seven weeks old, purchased from Japan SLC, Inc.) were anesthetized with pentobarbital, and the left kidney of each rat was exposed. Under a stereoscopic microscope, two of the left renal artery branches (generally, one renal artery is separated into three branches) were ligated and one central branch was left intact. When a renal artery branch is ligated, a portion controlled by the branch falls into ischemia, and such an ischemic renal portion can be visually detected. One week later, the right kidney was removed. That is to say, ⅚ of the kidneys was removed. Four weeks after surgery, blood was collected from each rat under unanesthetized conditions, and plasma creatinine level (Pcr) was measured. Pcr is a blood parameter indicative of renal function, and an increase in Pcr indicates impairment of renal function. After Pcr measurement, rats with considerably impaired renal function and rats with no impairment of renal function were eliminated, to thereby select 36 rats employed for the test.
Subsequently, on the basis of the thus-obtained Pcr data, these rats were divided into four groups in such a manner that the value of Pcr was averaged out among each group: control group (i.e., no drug administration group) (N=9); pyridoxamine dihydrochloride administration group (administered in the form of aqueous solution (1.5 g/L)) (N=9); candesartan cilexetil administration group ((1 mg/kg) administered orally once a day) (N=9); and combined administration group (pyridoxamine dihydrochloride administered in the form of aqueous solution (1.5 g/L), and candesartan cilexetil (1 mg/kg) administered orally once a day) (N=9). In addition to these four groups, one normal rat group non-surgical group, was provided.
Pyridoxamine dihydrochloride was dissolved in purified water, and the aqueous solution was available to the rats ad libitum. The daily dose of pyridoxamine dihydrochloride was about 100 mg/kg Candesartan cilexetil was suspended in 0.5% methyl cellulose sodium solution upon use, and the suspension was repeatedly orally administered.
Drug administration was initiated at week five after surgery (Pcr was about 1.5 mg/dL at the start of drug administration; i.e., renal function had already been impaired).
After initiation of drug administration, the number of surviving rats was recorded every day. Per was measured at week two, week four, week seven, week 11, and week 15 after initiation of drug administration. Urinary total protein excretion was measured at week four, week seven, week 11 and week 15 after initiation of drug administration (each measurement was performed after 18-hour urine accumulation). In addition, at week 15 after initiation of drug administration, systolic blood pressure was measured under unanesthetized conditions by means of a noninvasive blood pressure measuring apparatus.
At week 15 after initiation of drug administration, the renal tissue of each rat was observed, and the degree of glomerulosclerosis was evaluated on the basis of the below-described score. […] As used herein, the term “score” refers to the degree of glomerulosclerosis; i.e., the degree of hyperplasia of mesangial matrix in glomeruli. […] Score 0 was assigned to a glomerulus similar to that of rats in the normal rat group; score 1 was assigned to a glomerulus in which the area of mesangial matrix accounts for less than 25%; score 2 was assigned to a glomerulus in which the area of mesangial matrix accounts for 25% or more and less than 50%; score 3 was assigned to a glomerulus in which the area of mesangial matrix accounts for 50% or more and less than […]; and score 4 was assigned to a glomerulus in which the area of mesangial matrix accounts for 75% or more. The average of the thus-obtained scores of the glomeruli was employed for evaluation of glomerulosclerosis.

Compound	death due to renal failure, compared with control group (FIG. 1)	glomerulosclerosis score compared with control group (in words)	Glomerulosclerosis (score)
CCOc1nc2cccc(C(=O)OC(C)OC(=O)OC3CCCCC3)c2n1Cc1ccc(-c2ccccc2-c2nnn[nH]2)cc1 (stereo not drawn) [Candesartan cilexetil, 1-(cyclohexyloxycarbonyloxy)ethyl 2-ethoxy-1-[2′-(1H-tetrazol-5-yl)biphenyl-4-ylmethyl]-1H-benzimidazole-7-carboxylate]	tendency for suppression of death due to renal failure was observed	reduction in score was observed	1.52 ± 0.45 score
Cc1ncc(CO)c(CN)c1O [Pyridoxamine dihydrochloride, 4-(aminomethyl)-5-hydroxy-6-methyl-3-pyridinemethanol]	tendency for suppression of death due to renal failure was observed	no reduction in score was observed	1.93 ± 0.35 score
